Test results reported in patent US20080269291A1, “Chemical Compounds” (priority 2005, published 2008).

Target: T1, Recombinant human IKKβ (residues 1-737) (Homo sapiens, UniProt O14920)
T1 construct: Recombinant human IKKβ (residues 1-737); GST (C); made in house
T1 sequence (O14920 1-737): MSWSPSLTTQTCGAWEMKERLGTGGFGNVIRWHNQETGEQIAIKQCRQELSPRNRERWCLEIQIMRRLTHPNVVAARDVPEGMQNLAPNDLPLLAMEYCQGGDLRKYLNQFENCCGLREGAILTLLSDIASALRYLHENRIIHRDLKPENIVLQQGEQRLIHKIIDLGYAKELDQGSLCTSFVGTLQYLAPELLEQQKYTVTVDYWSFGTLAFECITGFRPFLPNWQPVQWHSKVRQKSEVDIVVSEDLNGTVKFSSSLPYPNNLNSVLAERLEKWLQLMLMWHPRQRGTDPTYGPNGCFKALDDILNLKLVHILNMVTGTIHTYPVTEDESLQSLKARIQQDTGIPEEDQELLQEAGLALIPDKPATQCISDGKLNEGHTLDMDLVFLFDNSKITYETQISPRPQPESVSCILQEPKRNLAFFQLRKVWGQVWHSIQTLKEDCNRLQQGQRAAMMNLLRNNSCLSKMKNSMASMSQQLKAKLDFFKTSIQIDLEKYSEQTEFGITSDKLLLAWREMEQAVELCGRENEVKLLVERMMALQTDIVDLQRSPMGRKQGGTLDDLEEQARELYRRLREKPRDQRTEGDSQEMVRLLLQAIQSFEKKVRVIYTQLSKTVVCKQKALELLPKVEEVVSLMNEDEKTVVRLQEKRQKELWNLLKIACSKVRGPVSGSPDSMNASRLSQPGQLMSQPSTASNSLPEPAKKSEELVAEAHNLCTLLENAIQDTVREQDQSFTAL
Experiment: IKK2 Assay (TR-FRET)
Type: biochemical
Settings: activity against IKK2, IKK2 5 nM, GST-IκBα substrate 25 nM, ATP 1 μM, 30 minutes at room temperature
Experimental: Recombinant human IKKβ (residues 1-737) was expressed in baculovirus as a C-terminal GST-tagged fusion protein, and its activity was assessed using a time-resolved fluorescence resonance energy transfer (TR-FRET) assay. Briefly, IKK2 (5 nM final) diluted in assay buffer (50 mM HEPES, 10 mM MgCl2, 1 mM CHAPS pH 7.4 with 1 mM DTT and 0.01% w/v BSA) was added to wells containing various concentrations of compound or DMSO vehicle (3% final). The reaction was initiated by the addition of GST-IκBα substrate (25 nM final)/ATP (1 μM final), in a total volume of 30 μL. The reaction was incubated for 30 minutes at room temperature, then terminated by the addition of 15 μL of 50 mM EDTA. Detection reagent (15 μl) in buffer (100 mM HEPES pH 7.4, 150 mM NaCl and 0.1% w/v BSA) containing antiphosphoserine-licBa-32/36 monoclonal antibody 12C2 (Cell Signalling Technology, Beverly Mass., USA) labelled with W-1024 europium chelate (Wallac OY, Turku, Finland), and an APC-labelled anti-GST antibody (Prozyme, San Leandro, Calif., USA) was added and the reaction was further incubated for 60 minutes at room temperature. The degree of phosphorylation of GST-IκBα was measured using a Packard Discovery plate reader (Perkin-Elmer Life Sciences, Pangbourne, UK) as a ratio of specific 665 nm energy transfer signal to reference europium 620 nm signal.

**Q.** For `CCS(=O)(=O)N1CCC(c2c[nH]c3c(C(N)=O)cc(S(=O)(=O)c4ccc(C)cc4)cc23)CC1` [Example 48, 3-[1-(ethylsulfonyl)-4-piperidinyl]-5-[(4-methylphenyl)sulfonyl]-1H-indole-7-carboxamide], which IC50 is on record?
**A.** 25.1 µM
